Measured values from ChEMBL document CHEMBL1201862, “PubChem BioAssay data set” (2004).
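48-hour exposure; five concentrations; linearly interpolated endpoints. GI50: concentration for 50% inhibition of growth.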 Calls of active or inactive are those of the source. No stated cut-off is given here; in the data, active = GI50 up to about 1.1 µM and inactive = higher.

Legend:
Test in all cases: NCI anticancer screen, dose series, 48 h
A498 = system: A498
COLO 205 = system: COLO 205
RPMI-8226 = system: RPMI-8226
NCI/ADR-RES = system: NCI/ADR-RES
HCC 2998 = system: HCC 2998
SN12C = system: SN12C
Malme-3M = system: Malme-3M
RXF 393 = system: RXF 393
KM12 = system: KM12
IGROV-1 = system: IGROV-1
SK-MEL-28 = system: SK-MEL-28
U-251 = system: U-251
SK-MEL-5 = system: SK-MEL-5
ACHN = system: ACHN
SF-295 = system: SF-295
SK-OV-3 = system: SK-OV-3
MOLT-4 = system: MOLT-4
SW-620 = system: SW-620
MDA-N = system: MDA-N
LOX IMVI = system: LOX IMVI
SK-MEL-2 = system: SK-MEL-2
BT-549 = system: BT-549
SNB-19 = system: SNB-19
HCT-15 = system: HCT-15
A549 = system: A549
K562 = system: K562
T47D = system: T47D
786-0 = system: 786-0
HT-29 = system: HT-29
UACC-257 = system: UACC-257
TK-10 = system: TK-10
HCT-116 = system: HCT-116
PC-3 = system: PC-3
SNB-75 = system: SNB-75
SR = system: SR
MDA-MB-435 = system: MDA-MB-435
CAKI-1 = system: CAKI-1
DU-145 = system: DU-145
SF-539 = system: SF-539
OVCAR-4 = system: OVCAR-4
CCRF-CEM = system: CCRF-CEM
UO-31 = system: UO-31
HOP-62 = system: HOP-62
OVCAR-8 = system: OVCAR-8
OVCAR-5 = system: OVCAR-5
Hs-578T = system: Hs-578T
NCI-H226 = system: NCI-H226
HOP-92 = system: HOP-92
NCI-H460 = system: NCI-H460
OVCAR-3 = system: OVCAR-3
EKVX = system: EKVX
MCF7 = system: MCF7
UACC-62 = system: UACC-62
M14 = system: M14
NCI-H522 = system: NCI-H522
HL-60 = system: HL-60
NCI-H23 = system: NCI-H23
MDA-MB-231 = system: MDA-MB-231
SF-268 = system: SF-268
SNB-78 = system: SNB-78
LXFL 529 = system: LXFL 529
DLD-1 = system: DLD-1
DMS-273 = system: DMS-273
DMS-114 = system: DMS-114
KM-20L2 = system: KM-20L2
M19-MEL = system: M19-MEL
HOP-18 = system: HOP-18

CC(=O)NNc1nc(C)c(C(/C=C/c2ccccc2O)=N/N=C(N)N)s1
GI50 (A498): > 100 µM (inactive) | GI50 (COLO 205): > 100 µM (inactive) | GI50 (RPMI-8226): > 100 µM (inactive) | GI50 (NCI/ADR-RES): > 100 µM (inactive) | GI50 (HCC 2998): > 100 µM (inactive) | GI50 (SN12C): > 100 µM (inactive) | GI50 (Malme-3M): > 100 µM (inactive) | GI50 (RXF 393): > 100 µM (inactive) | GI50 (KM12): > 100 µM (inactive) | GI50 (IGROV-1): > 100 µM (inactive) | GI50 (SK-MEL-28): > 100 µM (inactive) | GI50 (U-251): > 100 µM (inactive) | GI50 (SK-MEL-5): > 100 µM (inactive) | GI50 (ACHN): > 100 µM (inactive) | GI50 (SF-295): > 100 µM (inactive) | GI50 (SK-OV-3): > 100 µM (inactive) | GI50 (MOLT-4): > 100 µM (inactive) | GI50 (SW-620): > 100 µM (inactive) | GI50 (MDA-N): > 100 µM (inactive) | GI50 (LOX IMVI): > 100 µM (inactive) | GI50 (SK-MEL-2): > 100 µM (inactive) | GI50 (BT-549): > 100 µM (inactive) | GI50 (SNB-19): > 100 µM (inactive) | GI50 (HCT-15): > 100 µM | GI50 (A549): > 100 µM (inactive) | GI50 (K562): > 100 µM (inactive) | GI50 (T47D): > 100 µM (inactive) | GI50 (786-0): > 100 µM (inactive) | GI50 (HT-29): > 100 µM (inactive) | GI50 (UACC-257): > 100 µM (inactive) | GI50 (TK-10): > 100 µM (inactive) | GI50 (HCT-116): > 100 µM (inactive) | GI50 (PC-3): > 100 µM (inactive) | GI50 (SNB-75): > 100 µM (inactive) | GI50 (SR): > 100 µM (inactive) | GI50 (MDA-MB-435): > 100 µM (inactive) | GI50 (CAKI-1): > 100 µM (inactive) | GI50 (DU-145): > 100 µM (inactive) | GI50 (SF-539): > 100 µM (inactive) | GI50 (OVCAR-4): > 100 µM (inactive) | GI50 (CCRF-CEM): > 100 µM (inactive) | GI50 (UO-31): > 100 µM (inactive) | GI50 (HOP-62): > 100 µM (inactive) | GI50 (OVCAR-8): > 100 µM (inactive) | GI50 (OVCAR-5): > 100 µM (inactive) | GI50 (Hs-578T): > 100 µM (inactive) | GI50 (NCI-H226): > 100 µM (inactive) | GI50 (HOP-92): > 100 µM (inactive) | GI50 (NCI-H460): > 100 µM (inactive) | GI50 (OVCAR-3): > 100 µM (inactive) | GI50 (EKVX): 93.8 µM (inactive) | GI50 (MCF7): > 100 µM (inactive) | GI50 (UACC-62): > 100 µM (inactive) | GI50 (M14): > 100 µM (inactive) | GI50 (NCI-H522): > 100 µM (inactive) | GI50 (HL-60): > 100 µM (inactive) | GI50 (NCI-H23): > 100 µM (inactive) | GI50 (MDA-MB-231): > 100 µM (inactive) | GI50 (SF-268): > 100 µM (inactive)

CCNc1c(C(=O)N(CC)CC)c(=O)[nH]c2ncccc12
GI50 (A498): > 100 µM (inactive) | GI50 (COLO 205): > 100 µM (inactive) | GI50 (RPMI-8226): > 100 µM (inactive) | GI50 (SNB-78): > 100 µM (inactive) | GI50 (HCC 2998): > 100 µM (inactive) | GI50 (SN12C): > 100 µM (inactive) | GI50 (Malme-3M): > 100 µM (inactive) | GI50 (RXF 393): > 100 µM (inactive) | GI50 (LXFL 529): > 100 µM (inactive) | GI50 (KM12): > 100 µM (inactive) | GI50 (IGROV-1): > 100 µM (inactive) | GI50 (SK-MEL-28): > 100 µM (inactive) | GI50 (DLD-1): > 100 µM (inactive) | GI50 (U-251): > 100 µM (inactive) | GI50 (SK-MEL-5): > 100 µM (inactive) | GI50 (ACHN): > 100 µM (inactive) | GI50 (SF-295): > 100 µM (inactive) | GI50 (SK-OV-3): > 100 µM (inactive) | GI50 (MOLT-4): > 100 µM (inactive) | GI50 (DMS-273): > 100 µM (inactive) | GI50 (SW-620): > 100 µM (inactive) | GI50 (LOX IMVI): > 100 µM (inactive) | GI50 (SK-MEL-2): > 100 µM (inactive) | GI50 (SNB-19): > 100 µM (inactive) | GI50 (HCT-15): > 100 µM | GI50 (A549): > 100 µM (inactive) | GI50 (K562): > 100 µM (inactive) | GI50 (786-0): > 100 µM (inactive) | GI50 (HT-29): > 100 µM (inactive) | GI50 (UACC-257): > 100 µM (inactive) | GI50 (TK-10): > 100 µM (inactive) | GI50 (HCT-116): > 100 µM (inactive) | GI50 (SNB-75): > 100 µM (inactive) | GI50 (CAKI-1): > 100 µM (inactive) | GI50 (SF-539): > 100 µM (inactive) | GI50 (OVCAR-4): > 100 µM (inactive) | GI50 (CCRF-CEM): > 100 µM (inactive) | GI50 (UO-31): > 100 µM (inactive) | GI50 (HOP-62): > 100 µM (inactive) | GI50 (OVCAR-8): > 100 µM (inactive) | GI50 (OVCAR-5): > 100 µM (inactive) | GI50 (NCI-H226): > 100 µM (inactive) | GI50 (DMS-114): > 100 µM (inactive) | GI50 (HOP-92): > 100 µM (inactive) | GI50 (NCI-H460): > 100 µM (inactive) | GI50 (OVCAR-3): > 100 µM (inactive) | GI50 (EKVX): > 100 µM (inactive) | GI50 (UACC-62): > 100 µM (inactive) | GI50 (M14): > 100 µM (inactive) | GI50 (NCI-H522): > 100 µM (inactive) | GI50 (KM-20L2): > 100 µM (inactive) | GI50 (HL-60): > 100 µM (inactive) | GI50 (NCI-H23): > 100 µM (inactive) | GI50 (M19-MEL): > 100 µM (inactive) | GI50 (SF-268): > 100 µM (inactive)

Cc1c2cc[n+](C)cc2c(C)c2c1[nH]c1ccc(OCC(F)(F)F)cc12
GI50 (COLO 205): 0.94 µM (active) | GI50 (HCC 2998): 7.14 µM (inactive) | GI50 (SN12C): 0.164 µM (active) | GI50 (Malme-3M): 1.77 µM (inactive) | GI50 (LXFL 529): 0.447 µM (active) | GI50 (KM12): 3.41 µM (inactive) | GI50 (IGROV-1): 2.77 µM (inactive) | GI50 (DLD-1): 1.36 µM (inactive) | GI50 (U-251): 0.275 µM (active) | GI50 (SK-MEL-5): 1.73 µM (inactive) | GI50 (SF-295): 0.275 µM (active) | GI50 (HOP-18): 3.72 µM (inactive) | GI50 (SK-OV-3): 3.08 µM (inactive) | GI50 (MOLT-4): 5.12 µM (inactive) | GI50 (DMS-273): 1.49 µM (inactive) | GI50 (SW-620): 3.01 µM (inactive) | GI50 (SK-MEL-2): 4.62 µM (inactive) | GI50 (SNB-19): 0.718 µM (active) | GI50 (A549): 2.12 µM (inactive) | GI50 (K562): 3.83 µM (inactive) | GI50 (786-0): 0.38 µM (active) | GI50 (HT-29): 4.11 µM (inactive) | GI50 (HCT-116): 3.37 µM (inactive) | GI50 (SR): 3.37 µM (inactive) | GI50 (SF-539): 1.07 µM (active) | GI50 (OVCAR-4): 4.61 µM (inactive) | GI50 (CCRF-CEM): 7.31 µM (inactive) | GI50 (HOP-62): 0.771 µM (active) | GI50 (OVCAR-8): 0.467 µM (active) | GI50 (NCI-H226): 0.375 µM (active) | GI50 (DMS-114): 1.47 µM (inactive) | GI50 (HOP-92): 2.08 µM (inactive) | GI50 (NCI-H460): 2.25 µM (inactive) | GI50 (OVCAR-3): 4.72 µM (inactive) | GI50 (UACC-62): 12.2 µM (inactive) | GI50 (NCI-H522): 1.57 µM (inactive) | GI50 (KM-20L2): 3.98 µM (inactive) | GI50 (NCI-H23): 1.49 µM (inactive) | GI50 (M19-MEL): 2.09 µM (inactive) | GI50 (SF-268): 0.286 µM (active)
